Source: patent publication US20260042731A1, “(2,4-DICHLOROPHENOXY)ACETIC ACID ANALOGS” (CORTEVA AGRISCIENCE LLC, priority 2022, published 2026)
Like-named read-outs stand apart in the source and are kept apart here.

What was measured:
[1] = test system: glyphosate resistant Conyza canadensis (L.) (ERICA), horseweed; assay: Postemergence herbicide evaluation, growth of Conyza canadensis (ERICA); format: in vivo; details: Erigeron canadensis, post-emergence, read-out: Ave. ERICA
[2] = test system: Ambrosia artemisiifolia (AMBEL), common ragweed; assay: Postemergence herbicide evaluation, growth of Ambrosia artemisiifolia (AMBEL); format: in vivo; details: Ambrosia artemisiifolia, post-emergence, read-out: AVE. AMBEL
[3] = Volatility of compounds measured by thermogravimetric analysis (TGA); format: physicochemical
[4] = test system: Abutilon theophrasti (ABUTH), velvetleaf; assay: Postemergence herbicide evaluation, growth of Abutilon theophrasti (ABUTH); format: in vivo; details: Abutilon theophrasti, post-emergence, read-out: AVE. ABUTH
[5] = test system: Chenopodium album (CHEAL), common lambsquarters; assay: Postemergence herbicide evaluation, growth of Chenopodium album (CHEAL); format: in vivo; details: Chenopodium album, post-emergence, read-out: Ave. CHEAL
[6] = test system: Amaranthus rudis (AMATA), tall water hemp; assay: Postemergence herbicide evaluation, growth of Amaranthus rudis (AMATA); format: in vivo; details: Amaranthus tuberculatus, post-emergence, read-out: Ave. AMATA
[7] = test system: weeds (ABUTH, AMATA, AMBEL, CHEAL, ERICA); assay: Postemergence herbicide evaluation, overall average % weed control across ABUTH, AMATA, AMBEL, CHEAL, ERICA; format: in vivo; details: post-emergence, read-out: Overall Ave % Weed Control

## O=C(COc1ccc(Cl)cc1Cl)OCc1ccccc1 [Compound E4, Benzyl 2-(2,4-dichlorophenoxy)acetate]
[1]; 168 h
  pest or weed control at 280 g/ha: 70%
  pest or weed control at 560 g/ha: 75%
[1]; 336 h
  pest or weed control at 280 g/ha: 88%
  pest or weed control at 560 g/ha: 93%
[1]; 504 h
  pest or weed control at 280 g/ha: 95%
  pest or weed control at 560 g/ha: 99%
[2]; 168 h
  pest or weed control at 280 g/ha: 68%
  pest or weed control at 560 g/ha: 73%
[2]; 336 h
  pest or weed control at 280 g/ha: 89%
  pest or weed control at 560 g/ha: 97%
[2]; 504 h
  pest or weed control at 280 g/ha: 99%
  pest or weed control at 560 g/ha: 99%
[3]
  TGA Data (rate of weight loss, volatility): 0.4 µg/min
[4]; 168 h
  pest or weed control at 280 g/ha: 90%
  pest or weed control at 560 g/ha: 90%
[4]; 336 h
  pest or weed control at 280 g/ha: 97%
  pest or weed control at 560 g/ha: 97%
[4]; 504 h
  pest or weed control at 280 g/ha: 99%
  pest or weed control at 560 g/ha: 98%
[5]; 168 h
  pest or weed control at 280 g/ha: 73%
  pest or weed control at 560 g/ha: 70%
[5]; 336 h
  pest or weed control at 280 g/ha: 83%
  pest or weed control at 560 g/ha: 73%
[5]; 504 h
  pest or weed control at 280 g/ha: 88%
  pest or weed control at 560 g/ha: 75%
[6]; 168 h
  pest or weed control at 280 g/ha: 68%
  pest or weed control at 560 g/ha: 78%
[6]; 336 h
  pest or weed control at 280 g/ha: 65%
  pest or weed control at 560 g/ha: 93%
[6]; 504 h
  pest or weed control at 280 g/ha: 70%
  pest or weed control at 560 g/ha: 91%
[7]; 168 h
  pest or weed control at 280 g/ha: 74%
  pest or weed control at 560 g/ha: 77%
[7]; 336 h
  pest or weed control at 280 g/ha: 84%
  pest or weed control at 560 g/ha: 90%
[7]; 504 h
  pest or weed control at 280 g/ha: 90%
  pest or weed control at 560 g/ha: 92%
